Source: US20170369887A1, “Therapeutic compositions for breast cancer containing protein kinase D1 inhibitor” (SOOKMYUNG WOMEN'S UNIVERSITY INDUSTRY ACADEMIC COOPERATION …, priority 2016, published 2017)

How the values were obtained:
[1] = system: MCF-7-ADR cells; test: Cell survival rate, WST-8 assay, MCF-7-ADR; assay type: cell-based, human
Description: […] Cell survival rate was analyzed by WST-8 assay (Sigma-Aldrich) and an optical density was measured at 450 nm using a microplate reader.

[2] = system: MCF-7-ADR cells; test: Annexin V and propidium iodide (PI) staining; assay type: cell-based, human; conditions: FIG. 4E
[3] = system: MCF-7 cells; test: Cell survival rate, WST-8 assay, MCF-7; assay type: cell-based, human; conditions: 0.1 to 5 μM, FIG. 12B
[4] = system: MCF-7-ADR cells; test: Tumorsphere formation assay (TSA); assay type: cell-based, human; conditions: 1 μM or 5 μM, vs control, FIG. 3B
Description: For incubation of tumorspheres, cells (2000 cells/mL) were suspended and incubated in serum-free DMEM/F12 (welGENE) containing 1% penicillin, B27 (1:50; Gibco; Thermo Fisher), 20 ng/mL of an epidermal growth factor (Prospec, East Brunswick, N.J., (WelGENE) […] of insulin (Sigma-Aldrich, St. Louis, Mo., USA) and 0.4% bovine serum albumin (Sigma-Aldrich). After about 10 days, the plate was analyzed and formation of tumorspheres was verified and quantified with a microscope (Olympus IX71; Olympus, Tokyo, Japan). In order to count the number of tumorspheres, MCF-7-ADR cells were filtered and quantified by a strainer (BD Biosciences, East Rutherford, N.J., USA) having a pore size of 70 μm. Treatment with CRT0066101 was performed on 6-th day and 8-th day after incubation.

[5] = system: GSK3/β-catenin signaling; test: Western blot of PKD/PKCμ phosphorylation and GSK3/β-catenin signaling in MCF-7-ADR cells; assay type: cell-based, human; conditions: 1 μM or 5 μM, FIG. 3A
Description: CRT0066101 was purchased from R&D Systems (Minneapolis, Minn., USA); this drug was resuspended in sterile distilled water and used for in vivo studies. To treat CRT0066101, MCF-7-ADR cells (American Type Culture Collection, Manassas, Va., USA) were seeded and 0.1 to 10 μM CRT0066101 was added and incubated for 1 hour. WST-8 was purchased from Enzo Life Sciences, Inc. (Farmingdale, N.Y., USA). PRKD1 siRNA and scrambled siRNA (Santa Cruz Biotechnology, Santa Cruz, Calif., USA) were transfected by using Lipofectamine RNAiMAX (Invitrogen, Carlsbad, Calif., USA).
(§1) A total of 30 μg of a protein extract was isolated by 8% SDS-PAGE and the protein was electrophoretically transferred to a PVDF membrane. The primary antibodies used were phosphorylated PKD/PKCμ (Ser916), GSK3β, phosphorylated GSK3α (Ser21)/β (Ser9), and β-catenin. These antibodies were purchased from Cell Signaling Technology (Danvers, Mass., USA) and the PKD/PKCμ antibody was purchased from Santa Cruz Biotechnology. (β-actin (Bethyl Laboratories, Montgomery, Tex., USA) was used as a loading control. The membrane was washed with 1×PBS/0.1% Tween 20 and the bound proteins were detected with an enhanced chemiluminescent reagent (Amersham Pharmacia Biotech, Parsippany, N.J., USA).

[6] = system: MCF-7-ADR cells; test: MCF-7-ADR xenograft in nude mice treated with CRT0066101; assay type: in vivo, mouse
Description: A control or miR-32a overexpressed tumor and a carrier or CRT0066101 treated tumor were cut and paraffin-treated slides were used. The paraffin was removed from the slides, rehydrated 3 to 4 times in Histoclear, and then passed sequentially through ethanol at different concentrations (100%, 95%, 80%, and 70%). Antigen reconstitution was performed by immersing fragments in a 0.01M citric acid solution (pH 6.0) and boiling the fragments in a microwave for 15 minutes. In the case of TUNEL analysis, an in-situ apoptosis detection kit, a fluorescent material (Roche, Indianapolis, USA) labeled apoptotic cells, and a Ki-67 primary antibody (Vector Lab, USA) were applied to the fragments and incubated at 4° C. overnight. Thereafter, the slides were incubated with DAPI and secondary antibody for two hours. Finally, the slides were treated with a mounting solution (Dako) and a photograph was taken with a confocal microscope (Zeiss).
All studies, including the use of nude mice, were approved by the committee on animal protection and use of the Yonsei University Medical center (2015-0087) and performed under conditions according to facilities without specific pathogens and the guideline of the committee. Mice were anesthetized with 150 μl saline/zoletil/rompun (7:1:1) outside each femoral region and subcutaneously injected with 1.5×10^6 of MCF-7-ADR cells. Six mice were randomly grouped and started to be treated from 10-th day after tumor graft. […] The tumor size was measured every 3 to 4 days using a caliper from formation of touched tumor to termination and the tumor volume was calculated by Equation of length×width^2×0.5236. The mice were sacrificed in a 7.5% CO2 chamber and tumors were isolated and used for immunohistochemistry and other assays.

[7] = system: GSK3/β-catenin signaling; test: Western blot of GSK3/β-catenin signaling in MCF-7 cells; assay type: cell-based, human; conditions: FIG. 12A
Description: as §1

[8] = molecular target: T1, PRKD1 autophosphorylation (Homo sapiens, UniProt Q15139); conditions: reference [16]; cited from earlier work
T1 sequence (Q15139 1-912): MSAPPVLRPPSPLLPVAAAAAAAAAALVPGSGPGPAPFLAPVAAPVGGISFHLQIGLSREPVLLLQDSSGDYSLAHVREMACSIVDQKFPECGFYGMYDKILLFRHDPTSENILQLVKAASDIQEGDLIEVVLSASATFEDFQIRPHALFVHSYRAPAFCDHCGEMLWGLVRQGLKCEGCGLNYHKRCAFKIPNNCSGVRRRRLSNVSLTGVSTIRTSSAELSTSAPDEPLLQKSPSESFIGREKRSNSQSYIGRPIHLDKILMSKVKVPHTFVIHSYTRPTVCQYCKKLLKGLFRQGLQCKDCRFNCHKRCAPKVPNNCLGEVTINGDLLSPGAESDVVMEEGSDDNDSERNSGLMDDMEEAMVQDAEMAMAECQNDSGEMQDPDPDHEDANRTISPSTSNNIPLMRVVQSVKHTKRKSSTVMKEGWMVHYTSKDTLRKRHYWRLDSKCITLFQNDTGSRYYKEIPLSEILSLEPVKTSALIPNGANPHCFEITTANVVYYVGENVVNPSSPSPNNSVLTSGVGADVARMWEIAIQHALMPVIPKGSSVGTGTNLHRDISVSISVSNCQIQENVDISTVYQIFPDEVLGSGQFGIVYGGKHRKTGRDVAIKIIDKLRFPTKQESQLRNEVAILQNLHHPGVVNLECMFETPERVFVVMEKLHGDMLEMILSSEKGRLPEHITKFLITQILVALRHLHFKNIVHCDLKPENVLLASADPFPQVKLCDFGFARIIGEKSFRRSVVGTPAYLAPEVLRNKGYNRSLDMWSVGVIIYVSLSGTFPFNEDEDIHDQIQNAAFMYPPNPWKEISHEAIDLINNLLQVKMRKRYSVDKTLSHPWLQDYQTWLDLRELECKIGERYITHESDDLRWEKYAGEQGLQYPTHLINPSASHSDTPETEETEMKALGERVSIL

[9] = system: MCF-7-ADR cells; test: CD44+/CD24− surface marker analysis using flow cytometry; assay type: cell-based, human; conditions: 1 μM, FIG. 3C
Description: Cells were collected after transfection with RNAi of PRKD1 or CRT0066101 treatment and expression of CD44 +/CD24-surfaces was evaluated. The cells were washed with 2% FBS, stained with anti-CD44 (APC-conjugated; BD Biosciences) and anti-CD24 (BD Biosciences) in a PBS containing 2% FBS, and placed on ice in the dark for 30 minutes. The cells were washed again with a cold PBS buffer, loaded with >10,000 cells in a BD CantoII flow cytometer (BD Biosciences), and then analyzed by flow cytometry using FACSDiVa software (BD Biosciences).

[10] = treated tumor vs control, FIG. 5G

SMILES: COc1cccc2c1C(=O)c1c(O)c3c(c(O)c1C2=O)C[C@@](O)(C(=O)CO)C[C@@H]3O[C@H]1C[C@H](N)[C@H](O)[C@H](C)O1 [doxorubicin]
- cell survival rate ([1]; MCF-7-ADR cells exposed to doxorubicin at different doses, FIG. 4A): reduced dose-dependently
- initiation of apoptosis ([2]; treated cells vs control): increased

SMILES: CC[C@@H](N)CNc1ccnc(-c2cc(-c3cnn(C)c3)ccc2O)n1.Cl.Cl [CRT0066101]
- cell survival rate ([1]; MCF-7-ADR cells, 0.1 to 5 μM, FIG. 4C): decreased cell survival rate dose-dependently
- cell survival rate, combination with doxorubicin ([1]; MCF-7-ADR, CRT0066101 combined with doxorubicin, vs CRT0066101 alone, FIG. 4D): significantly lowered
- cell survival rate [3]: did not decrease
- number of tumorspheres (>70 μm) [4]: decreased dose-dependently
- phosphorylation of PKD/PKCμ and GSK3/β-catenin [5]: inhibited
- side effects (sign of toxicity, weight loss) ([6]; 65 mg/kg daily for 4 weeks, all animals, FIG. 5E): did not cause side effects
- tumor size ([6]; 65 mg/kg daily for 4 weeks, oral, vs untreated control, FIG. 5D): reduced
- tumor weight ([6]; 65 mg/kg daily for 4 weeks, vs control tumor, FIG. 5E): reduced
- change in mouse's weight ([6]; 65 mg/kg orally daily for 4 weeks, FIG. 5E): not detected
- volume of tumor ([6]; 65 mg/kg orally daily for 4 weeks, vs control tumor, FIG. 5E): reduced
- apoptosis in tumor, TUNEL analysis [6, 10]: apoptosis increased
- proliferation in tumor, Ki-67 staining [6, 10]: proliferation decreased
- phosphorylated PKD/PKCμ through GSK3/β-catenin signaling in tumor ([6]; western blot of tumor, FIG. 5F): down regulation
- level of apoptosis in doxorubicin-treated cells ([2]; CRT0066101 added to doxorubicin-treated cells): increased
- GSK3/β-catenin signaling [7]: not affected
- growth of pancreatic cancer [8]: blocked growth
- number (Q1) of CD44+/CD24− [9]: also decreased
